Where two headings read alike, the source gives them in different places.
Key:
[1] = system: CCRF-CEM; assay: NCI 60 antitumor screening (single dose / five doses); assay type: cell-based; details: Homo sapiens; for inhibition at 10 µM: CCRF-CEM (leukaemia), single dose 10 μM, read-out: Growth inhibition percentage (GI %); for GI50: CCRF-CEM, five doses (0.01–100 μM), read-out: GI50
[2] = system: SR; assay: as above; assay type: cell-based; details: Homo sapiens; for inhibition at 10 µM: SR (leukaemia), single dose 10 μM, read-out: Growth inhibition percentage (GI %); for GI50: SR, five doses (0.01–100 μM), read-out: GI50
[3] = system: EKVX; assay: as above; assay type: cell-based; details: Homo sapiens; for inhibition at 10 µM: EKVX (non-small cell lung cancer), single dose 10 μM, read-out: Growth inhibition percentage (GI %)
[4] = system: HOP-92; assay: as above; assay type: cell-based; details: Homo sapiens; for inhibition at 10 µM: HOP-92 (non-small cell lung cancer), single dose 10 μM, read-out: Growth inhibition percentage (GI %); for GI50: HOP-92, five doses (0.01–100 μM), read-out: GI50
[5] = system: HS 578T; assay: NCI 60 antitumor screening (single dose); assay type: cell-based; details: Homo sapiens; HS 578T (breast cancer), single dose 10 μM; read-out: Growth inhibition percentage (GI %)
Method in brief: (§1)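 NCI-60 one-dose screen. Dose: 10 μM. Lines: 60 human tumour lines, nine tissue types. Output: GI% = 100 − G%.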

[6] = system: NCI-H460; assay: NCI 60 antitumor screening (single dose); assay type: cell-based; details: Homo sapiens; NCI-H460 (non-small cell lung cancer), single dose 10 μM; read-out: Growth inhibition percentage (GI %)
Method in brief: as §1

[7] = system: PC-3; assay: NCI 60 antitumor screening (single dose); assay type: cell-based; details: Homo sapiens; PC-3 (prostate cancer), single dose 10 μM; read-out: Growth inhibition percentage (GI %)
Method in brief: as §1

[8] = system: SK-OV-3; assay: NCI 60 antitumor screening (single dose); assay type: cell-based; details: Homo sapiens; SK-OV-3 (ovarian cancer), single dose 10 μM; read-out: Growth inhibition percentage (GI %)
Method in brief: as §1

[9] = system: COLO 205; assay: NCI 60 antitumor screening (single dose / five doses); assay type: cell-based; details: Homo sapiens; for inhibition at 10 µM: COLO 205 (colon cancer), single dose 10 μM, read-out: Growth inhibition percentage (GI %); for GI50: COLO 205, five doses (0.01–100 μM), read-out: GI50
[10] = system: HT29; assay: as above; assay type: cell-based, human; details: for GI50: read-out: GI50; for inhibition at 10 µM: HT-29, HT29 (colon cancer), single dose 10 μM, read-out: Growth inhibition percentage (GI %)
[11] = system: SW-620; assay: as above; assay type: cell-based, human; details: for GI50: read-out: GI50; for inhibition at 10 µM: SW-620 (colon cancer), single dose 10 μM, read-out: Growth inhibition percentage (GI %)
[12] = system: SF-539; assay: as above; assay type: cell-based; details: Homo sapiens; for inhibition at 10 µM: SF-539 (CNS cancer), single dose 10 μM, read-out: Growth inhibition percentage (GI %); for GI50: SF-539, five doses (0.01–100 μM), read-out: GI50
[13] = system: SNB-75; assay: as above; assay type: cell-based; details: Homo sapiens; for inhibition at 10 µM: SNB-75 (CNS cancer), single dose 10 μM, read-out: Growth inhibition percentage (GI %); for GI50: SNB-75, five doses (0.01–100 μM), read-out: GI50
[14] = system: MALME-3M; assay: as above; assay type: cell-based; details: Homo sapiens; for inhibition at 10 µM: MALME-3M (melanoma), single dose 10 μM, read-out: Growth inhibition percentage (GI %); for GI50: MALME-3M, five doses (0.01–100 μM), read-out: GI50
[15] = system: MDA-MB-435; assay: as above; assay type: cell-based; details: Homo sapiens; for inhibition at 10 µM: MDA-MB-435 (melanoma), single dose 10 μM, read-out: Growth inhibition percentage (GI %)
[16] = system: SK-MEL-28; assay: as above; assay type: cell-based; details: Homo sapiens; for inhibition at 10 µM: SK-MEL-28 (melanoma), single dose 10 μM, read-out: Growth inhibition percentage (GI %)
[17] = system: SK-MEL-5; assay: as above; assay type: cell-based; details: Homo sapiens; for inhibition at 10 µM: SK-MEL-5 (melanoma), single dose 10 μM, read-out: Growth inhibition percentage (GI %); for GI50: SK-MEL-5, five doses (0.01–100 μM), read-out: GI50
[18] = system: UACC-257; assay: as above; assay type: cell-based; details: Homo sapiens; for inhibition at 10 µM: UACC-257 (melanoma), single dose 10 μM, read-out: Growth inhibition percentage (GI %)
[19] = system: UACC-62; assay: as above; assay type: cell-based; details: Homo sapiens; for inhibition at 10 µM: UACC-62 (melanoma), single dose 10 μM, read-out: Growth inhibition percentage (GI %)
[20] = system: IGROV1; assay: as above; assay type: cell-based; details: Homo sapiens, IGROV-1; for inhibition at 10 µM: IGROV1 (ovarian cancer), single dose 10 μM, read-out: Growth inhibition percentage (GI %); for GI50: IGROV1, five doses (0.01–100 μM), read-out: GI50
[21] = system: NCI/ADR-RES; assay: as above; assay type: cell-based; details: Homo sapiens; for inhibition at 10 µM: NCI/ADR-RES (ovarian cancer), single dose 10 μM, read-out: Growth inhibition percentage (GI %); for GI50: NCI/ADR-RES, five doses (0.01–100 μM), read-out: GI50
[22] = system: A498; assay: as above; assay type: cell-based; details: Homo sapiens; for GI50: A498, five doses (0.01–100 μM), read-out: GI50
[23] = system: ACHN; assay: as above; assay type: cell-based; details: Homo sapiens; for inhibition at 10 µM: ACHN (renal cancer), single dose 10 μM, read-out: Growth inhibition percentage (GI %); for GI50: ACHN, five doses (0.01–100 μM), read-out: GI50
[24] = system: RXF 393; assay: as above; assay type: cell-based; details: Homo sapiens; for inhibition at 10 µM: RXF 393 (renal cancer), single dose 10 μM, read-out: Growth inhibition percentage (GI %); for GI50: RXF 393, five doses (0.01–100 μM), read-out: GI50
[25] = system: SN 12C; assay: as above; assay type: cell-based; details: Homo sapiens, SN12C; for inhibition at 10 µM: SN 12C (renal cancer), single dose 10 μM, read-out: Growth inhibition percentage (GI %)
[26] = system: DU-145; assay: as above; assay type: cell-based; details: Homo sapiens; for inhibition at 10 µM: DU-145 (prostate cancer), single dose 10 μM, read-out: Growth inhibition percentage (GI %); for GI50: DU-145, five doses (0.01–100 μM), read-out: GI50
[27] = system: MDA-MB-231/ATCC; assay: as above; assay type: cell-based; details: Homo sapiens; for GI50: MDA-MB-231/ ATCC, five doses (0.01–100 μM), read-out: GI50; for inhibition at 10 µM: MDA-MB-231/ATCC (breast cancer), single dose 10 μM, read-out: Growth inhibition percentage (GI %)
[28] = system: MDA-MB-468; assay: as above; assay type: cell-based; details: Homo sapiens; for inhibition at 10 µM: MDA-MB-468 (breast cancer), single dose 10 μM, read-out: Growth inhibition percentage (GI %); for GI50: MDA-MB-468, five doses (0.01–100 μM), read-out: GI50
[29] = Homo sapiens, HT-29, HT29, five doses (0.01–100 μM)
[30] = Homo sapiens, SW-620, SW-620, five doses (0.01–100 μM)

Oc1ccccc1/C=N/Nc1nc(N/N=C/c2ccccc2O)nc(N2CCOCC2)n1 [compound 6a, 2-[(1e)-(2-{4-[(E)-2-[(2-Hydroxyphenyl)methylidene]hydrazin-1-yl]-6-(morpholin-4-yl)-1,3,5-triazin-2-yl}hydrazin-1-ylidene)methyl]phenol]
inhibition at 10 µM [1]: 57.6%
GI50 [1]: 0.53 µM
inhibition at 10 µM [2]: 84%
GI50 [2]: 0.32 µM
inhibition at 10 µM [3]: 77.8%
GI50 ([3]; EKVX, five doses (0.01–100 μM), read-out: GI50): 3.28 µM
inhibition at 10 µM [4]: 87.2%
GI50 [4]: 1.65 µM
inhibition at 10 µM [5]: 53%
inhibition at 10 µM [6]: 67.5%
inhibition at 10 µM [7]: 75.9%
inhibition at 10 µM [8]: 88.1%
inhibition at 10 µM [9]: 52%
GI50 [9]: 5.53 µM
GI50 [10, 29]: 5.89 µM
inhibition at 10 µM ([10]; Homo sapiens): 65.8%
GI50 [11, 30]: 1.78 µM
inhibition at 10 µM ([11]; Homo sapiens): 61.5%
inhibition at 10 µM [12]: 48.2%
GI50 [12]: 7.29 µM
inhibition at 10 µM [13]: 104%
GI50 [13]: 1.82 µM
inhibition at 10 µM [14]: 47.4%
GI50 [14]: 8.69 µM
inhibition at 10 µM [15]: 41.1%
GI50 ([15]; MDA-MB-435, five doses (0.01–100 μM), read-out: GI50): 9.53 µM
inhibition at 10 µM [16]: 72%
GI50 ([16]; SK-MEL-28, five doses (0.01–100 μM), read-out: GI50): 3.2 µM
inhibition at 10 µM [17]: 34.2%
GI50 [17]: 5.86 µM
inhibition at 10 µM [18]: 46.7%
GI50 ([18]; UACC-257, five doses (0.01–100 μM), read-out: GI50): 6.53 µM
inhibition at 10 µM [19]: 11.2%
GI50 ([19]; UACC-62, five doses (0.01–100 μM), read-out: GI50): 2.45 µM
inhibition at 10 µM [20]: 63%
GI50 [20]: 0.97 µM
inhibition at 10 µM [21]: 77.1%
GI50 [21]: 0.69 µM
GI50 [22]: 1.09 µM
inhibition at 10 µM [23]: 71.9%
GI50 [23]: 1.58 µM
inhibition at 10 µM [24]: 101%
GI50 [24]: 0.27 µM
inhibition at 10 µM [25]: 72.8%
GI50 ([25]; SN 12C, five doses (0.01–100 μM), read-out: GI50): 18.3 µM
inhibition at 10 µM [26]: 64.5%
GI50 [26]: 6.09 µM
GI50 [27]: 2.42 µM
inhibition at 10 µM [27]: 63.7%
inhibition at 10 µM [28]: 60.8%
GI50 [28]: 4.11 µM

Brc1ccccc1/C=N/Nc1nc(N/N=C/c2ccccc2Br)nc(N2CCOCC2)n1 [compound 6b, 2,4-Bis[(E)-2-[(2-bromophenyl)methylidene]hydrazin-1-yl]-6-(morpholin-4-yl)-1,3,5-triazine]
inhibition at 10 µM [1]: 19.9%
inhibition at 10 µM [2]: 36.1%
inhibition at 10 µM [3]: 19.8%
inhibition at 10 µM [4]: -12.3%
inhibition at 10 µM [5]: -14.4%
inhibition at 10 µM [6]: -2.92%
inhibition at 10 µM [7]: 16%
inhibition at 10 µM [8]: -13.9%
inhibition at 10 µM [9]: 13.9%
inhibition at 10 µM ([10]; Homo sapiens): 26%
inhibition at 10 µM ([11]; Homo sapiens): 3.31%
inhibition at 10 µM [12]: -4.64%
inhibition at 10 µM [13]: -31.7%
inhibition at 10 µM [14]: -42.9%
inhibition at 10 µM [15]: 2.29%
inhibition at 10 µM [16]: 0.72%
inhibition at 10 µM [17]: 30.4%
inhibition at 10 µM [18]: -3.93%
inhibition at 10 µM [19]: -2.17%
inhibition at 10 µM [20]: 10.3%
inhibition at 10 µM [21]: 8.51%
inhibition at 10 µM ([22]; A498 (renal cancer), single dose 10 μM, read-out: Growth inhibition percentage (GI %)): 49.8%
inhibition at 10 µM [23]: 6.36%
inhibition at 10 µM [24]: 30.4%
inhibition at 10 µM [25]: 1.16%
inhibition at 10 µM [26]: 1.72%
inhibition at 10 µM [27]: -3.3%
inhibition at 10 µM [28]: 9.74%

Brc1cccc(/C=N/Nc2nc(N/N=C/c3cccc(Br)c3)nc(N3CCOCC3)n2)c1 [compound 6c, 2,4-Bis[(E)-2-[(3-bromophenyl)methylidene]hydrazin-1-yl]-6-(morpholin-4-yl)-1,3,5-triazine]
inhibition at 10 µM [1]: 79%
GI50 [1]: 0.57 µM
inhibition at 10 µM [2]: 92.1%
GI50 [2]: 0.16 µM
inhibition at 10 µM [3]: 51%
inhibition at 10 µM [4]: 36.2%
GI50 [4]: 1.24 µM
inhibition at 10 µM [5]: 33.8%
inhibition at 10 µM [6]: 58.8%
inhibition at 10 µM [7]: 63.5%
inhibition at 10 µM [8]: 7.13%
inhibition at 10 µM [9]: 76.2%
GI50 [9]: 1.24 µM
GI50 ([10]; HT29, five doses (0.01–100 μM)): 0.61 µM
GI50 [10, 29]: 0.6 µM
inhibition at 10 µM ([10]; Homo sapiens): 93.4%
GI50 [11, 30]: 0.82 µM
inhibition at 10 µM ([11]; Homo sapiens): 75.3%
GI50 ([11]; SW-620, five doses (0.01–100 μM)): 0.83 µM
inhibition at 10 µM [12]: 43.6%
GI50 [12]: 3.83 µM
inhibition at 10 µM [13]: -7.5%
GI50 [13]: 4.54 µM
inhibition at 10 µM [14]: 154%
GI50 [14]: 1.88 µM
inhibition at 10 µM [15]: 66.6%
inhibition at 10 µM [16]: 82.9%
inhibition at 10 µM [17]: 79.3%
GI50 [17]: 1.99 µM
inhibition at 10 µM [18]: 64.1%
inhibition at 10 µM [19]: 44%
inhibition at 10 µM [20]: 57.2%
GI50 [20]: 2.92 µM
inhibition at 10 µM [21]: 58.2%
GI50 [21]: 3.25 µM
GI50 [22]: 0.14 µM
inhibition at 10 µM [23]: 73.7%
GI50 [23]: 2.21 µM
inhibition at 10 µM [24]: 168%
GI50 [24]: 0.16 µM
inhibition at 10 µM [25]: 55.8%
inhibition at 10 µM [26]: 72.7%
GI50 [26]: 1.31 µM
GI50 [27]: 3.97 µM
inhibition at 10 µM [27]: 33.9%
inhibition at 10 µM [28]: 98.9%
GI50 [28]: 1.91 µM
